Results published in a melting point compilation (Tetko et al.; mined from patent text by program, amines drawn as free bases though some values may be those of a salt).
Residues, ends and D or L forms follow the SMILES beside them. *: point of attachment. Boc = CC(C)(C)OC(=O)*; OBn = c1ccc(CO*)cc1; Bn = c1ccc(C*)cc1

Row | SMILES | melting point [°C]
1 | COC(=O)c1ccc(C#CCc2ccc3c(c2)C(C)(C)CCC3(C)C)cc1O | 75 to 77
2 | CCCCCCCCCCCc1nc2c(O)c(Cl)c(C)c(Cl)c2cc1CCCCCCCCCC | 54.5 to 56
3 | COc1cc(C=CC#N)cc(OC)c1OC | 92.1
4 | Cc1nc(C)c(C(C)(O)c2ccccc2)s1 (stereo unspecified) | 131 to 132
5 | Cc1c(F)c(F)c(COC(=O)C(c2cnc(C(C)(C)C)nc2)C(C)(C)C)c(F)c1F (racemic) | 91
6 | CC(C)c1cc(NS(=O)(=O)c2cc(C3(O)CCC(=O)N3C)ccc2Cl)cc(C(C)C)c1O (stereo unspecified) | 198 to 200
7 | Cc1c2sc3ccccc3nc-2c2c(O)cccc2c1=O | 226 to 228
8 | COC1=C(Cc2ccc3ccccc3c2)C(=O)CC1 | 70 to 71
9 | CCOc1c(C(=O)O)cnc2nn(C)cc12 | 222 to 225
10 | COc1cc(C(=O)CS(=O)(=O)N(C)C)c(N)cc1Cl | 59 to 62
11 | CC(C)[C@@H](CO)NS(=O)(=O)c1ccc(Cl)cc1 | 83 to 85
12 | OC(=S)CCc1cccc(Br)c1 | 90 to 91
13 | O=[N+]([O-])c1ccc(N2CCSCC2)cc1 | 142 to 144
14 | COc1ccc(S(=O)(=O)C[N+](=O)[O-])c2ccccc12 | 109 to 110
15 | CCOC(=O)c1nc2c(=O)[nH]c3cc(C(F)(F)F)ccc3n2c1CN1CCN(C)CC1 | 255
16 | Cc1[nH]cc2c(=O)n(-c3ccc(Cl)cc3)nc-2c1-c1cccc(NS(C)(=O)=O)c1 | 332 to 341
17 | CC(C)(C)OC(=O)N1CCC(C=C(Br)Br)CC1 | 82.3 to 83.9
18 | COc1ccc(-c2ccccc2C(SCC(=O)c2ccccc2)C(O)C(N)=O)cc1 (stereo unspecified) | 132 to 134
19 | CC(C)(C)OC(=O)NC(Cc1ccccc1)C(O)CNCC(O)C(CCc1ccccc1)NC(=O)OCc1ccccc1 (stereo unspecified) | 150 to 151
20 | CC(C)CC(NC(=O)C(Cc1ccc(OCc2ccccc2)cc1)NC(=O)OC(C)(C)C)C(=O)NCC(=O)OCc1ccccc1 (stereo not drawn) (Boc-Tyr(Bn)-Leu-Gly-OBn; configuration not given here) | 114 to 116
21 | O=C1CCn2c(-c3cccs3)nc3c(Cl)ccc1c32 | 252 to 254
22 | Cc1cccc(OCCOS(N)(=O)=O)c1 | 76 to 78
23 | CS(=O)(=O)N1CC(=O)NC(=O)N1Cc1ccc(Cl)cc1 | 145
24 | CC1=CCC(C(=O)O)CC1 (stereo unspecified) | 95
25 | O=C(Nc1ccc2ccc(Oc3ccccc3)nc2n1)c1ccsc1 | 95
26 | COc1cc(Nc2c(C#N)cnc3cc(-c4ccc(CN5CCC(O)CC5)cc4)sc23)c(Cl)cc1Cl | 149 to 150

Row | SMILES | melting point [°C]
27 | Cc1ccc(C(O)c2ccc3noc(-c4cccc(Cl)c4)c3c2)cc1 (stereo unspecified) | 225
28 | COC(=O)c1c(CBr)cccc1CBr | 76 to 79
29 | Cn1cc(-c2cccc(C(F)(F)F)c2)c(=O)c(-c2ccccc2F)c1 | 152 to 154
30 | Cc1cc(NC(=O)c2cccc(CSc3ncnc4[nH]ncc34)c2)ccc1C(C)C | 187 to 189
31 | COC(=O)C1=C(N(c2ccccc2)c2ccccc2)CC(C(=O)OC)=C(N(c2ccccc2)c2ccccc2)C1 | 236 to 238
32 | CCOC(=O)N1CCC(n2nnnc2CCC(C)Oc2ccc3nc4[nH]c(=O)[nH]c4cc3c2)CC1 (stereo unspecified) | 233 to 236
33 | CCN1c2cscc2C(=O)N(CCN(C)C)c2ccccc21 | 75 to 77
34 | CC(C)(C)C1CCCC=C1c1ccc(C(=O)O)cc1 (stereo unspecified) | 197
35 | O[C@H](CCc1cccnc1)COc1ccc(-c2ccc(F)cc2)cc1 | 124 to 125
36 | N=C1CC(=O)Oc2cc(OCC(O)COc3ccccc3)ccc21 (stereo unspecified) | 213 to 214
37 | CC12CCC(=O)C=C1CCC1C2=CCC2(C)C(C#N)=CCC12 (stereo unspecified) | 148 to 150
38 | CC(=O)NC1=C(O)CC(C(=O)N(C)C)CC1=O (stereo unspecified) | 162 to 164
39 | Cc1ccc(-c2nc3ccc(C(C)(C)CNC=O)cc3[nH]2)cc1 | 193 to 195
40 | CSc1nc(-c2ccncc2)cc(=O)n1C | 176 to 178
41 | CC1(C)Cc2ccc(F)cc2C=[N+]1[O-] | 88 to 90
42 | CC(=O)N1CCc2cc(-c3ccc4c(c3)CCC3N(C)C(=O)CCC43C)cc([N+](=O)[O-])c21 (single isomer, unassigned; (+)) | 235 to 240
43 | COc1ccc2c(c1)CNCC(=O)N2 | 148
44 | CCOCc1nc(C(C)(C)O)c(C(=O)O)n1Cc1ccc(-c2ccccc2C(=O)O)cc1 | 166 to 169
45 | CCCCc1nc(C(=O)C(C)C)c(C#N)n1Cc1ccc(-c2ccccc2-c2nnnn2C(c2ccccc2)(c2ccccc2)c2ccccc2)cc1 | 115 to 116
46 | O=C(NCCSCc1cccc(NC(=O)C2CC2)c1)c1c(Cl)cccc1Cl | 46 to 47
47 | CC(=O)Nc1nc2c(s1)-c1c(c(-c3c[nH]cn3)nn1-c1ccccc1Cl)CC2 | 287 to 288
48 | COc1ccccc1OCCCc1oc(-n2cnc(-c3ccccc3)c2-c2ccccc2)nc1-c1ccc(Cl)cc1 | 118 to 119
49 | CNC(=C[N+](=O)[O-])SCc1ccc(CN(C)C)o1 | 101 to 103
50 | CN(C)CC1Cc2c(n(C)c3ccc(O)cc23)C1 (stereo unspecified) | 110
51 | CN(CC#Cc1cc(CN2CCOCC2)cc2c(=O)c(C(=O)NCc3ccc(Cl)cc3)cn(C)c12)CC(O)CO (stereo unspecified) | 140 to 142
52 | CC(CC(=O)O)C(=O)NC1(C(=O)O)CCCC1 (stereo unspecified) | 169 to 170

Row | SMILES | melting point [°C]
53 | O=[N+]([O-])c1ccc(S(=O)C2CC2)cc1 (racemic) | 104 to 106
54 | Nc1ncccc1OCc1ccc(F)cc1F | 105 to 107
55 | C[C@@H]1Cc2ccsc2[C@H](C)N1CCNC(=O)c1ccc(NC(=O)C(C)(C)C)cc1 (relative stereo) | 133
56 | CN(C)CCCn1c(-c2ccc(C#N)cc2)cc2c1CCCCC2 | 96 to 97
57 | COC(=O)CCc1ccc(NC(=O)OC(C)(C)C)cc1 | 72 to 73.5
58 | CCOC(=O)c1cnoc1-c1ccc(C)cc1 | 42 to 44
59 | CC(=O)c1cccc(Oc2cccc(-c3cccc(C(=O)NCCC#N)c3)n2)c1 | 140 to 141
60 | CCc1cn(C2CC(O)C(CN=[N+]=[N-])O2)c(=O)[nH]c1=O (stereo unspecified) | 174 to 177
61 | CC(C)c1c(C(=O)c2cccc(C=CC#N)c2)[nH]c(=O)[nH]c1=O | 210 to 211
62 | COc1ccc(OC)c(C(=O)c2ccc(OCc3ccccc3)cc2)c1 | 111 to 113
63 | CC(=O)CCOc1c(-c2ccc(S(C)(=O)=O)cc2)cnn(-c2ccc(F)cc2)c1=O | 133 to 136
64 | Cc1cccc(Nc2ncnc3ccc(-n4cnc5ccccc54)cc23)c1 | 245 to 246
65 | O=Cc1cn(C(c2ccccc2)(c2ccccc2)c2ccccc2)cn1 | 186 to 194
66 | COc1ccc(C2Sc3cc(Cc4ccc(C)s4)ccc3N(CCN(C)C)C(=O)C2OC(C)=O)cc1 (stereo unspecified) | 131 to 134
67 | N#Cc1cc(-c2cc(C(F)F)c3cnn(C4CCCCO4)c3n2)ccc1N (stereo unspecified) | 192
68 | Cc1ccc2c(c1)OC(CCO)C(=O)N2 (stereo unspecified) | 143 to 144
69 | CCC(=O)N(CC)c1cccc(-c2ccnc3c(C#N)cnn23)c1 | 161 to 162
70 | CC(=O)NC[C@H]1CN(c2ccc(N3CCC(=C(C#N)C#N)CC3)c(F)c2)C(=O)O1 | 158 to 160
71 | Cc1[nH]c(=S)[nH]c1C(N)=O | < 300
72 | N#Cc1ccc2c(c1)OC(c1ccccc1)(c1ccccc1)O2 | 106 to 107
73 | CNc1nccn2c(Br)cnc12 | 139
74 | CC(C)(CO)C(O)(Cn1cncn1)c1ccc(Cl)cc1 (stereo unspecified) | 120 to 135
75 | COC12CC(C)(c3nnc(-c4cncc(Br)c4)[nH]3)CN(C)C1Cc1c[nH]c3cccc2c13 (stereo unspecified) | 163 to 168
76 | N#CNC(=S)Nc1ccc([N+](=O)[O-])cc1 | > 250
77 | CCC[C@H]1CC[C@H](c2ccc(CCC(F)F)cc2)CC1 | 12
78 | CCc1ccc2c(c1)C(=O)c1ccc(-c3nnn[nH]3)cc1S2(=O)=O | 239

Row | SMILES | melting point [°C]
79 | O=C(c1ccccc1)C(O)n1cncc1Cl (stereo unspecified) | 201 to 203
80 | O=C1Nc2ccccc2N2C1CCC2c1cccc(Cl)c1 (stereo unspecified) | 210
81 | COC(=O)C=Cc1ccc(OCCn2c(=O)sc3cc(C(=O)c4ccccc4)ccc32)cc1 | 144 to 146
82 | COc1cc2c(cc1OC)C(C=Cc1cccc(OC)c1OC)=NN(C(C)=O)C(C)C2 (stereo unspecified) | 72 to 74
83 | COc1cc(OC)cc(Oc2ncccc2OCCCc2ccncc2O)c1 | 172 to 178
84 | Cc1cc(OCCO)c2ccccc2c1O | 136 to 137
85 | Cc1nc2ncnn2c2c1CCN2C1CCCCCCC1 | 188 to 190
86 | O=c1ccc(S(=O)(=O)c2oc3ccccc3c2-c2ccccc2)n[nH]1 | > 220
87 | O=C1CCCN1C1=CC(CF)(CF)Oc2ccc(C(F)(F)C(F)(F)F)cc21 | 104 to 105
88 | N#Cc1c(I)[nH]c(I)c1I | 257 to 258
89 | CCCCCCCCCCCCCC1CC(=O)NCCCNCCCCN1 (stereo unspecified) | 72 to 73
90 | CC(C#N)(c1ccc(Cl)cc1)c1ccc(N)cc1Cl (stereo unspecified) | 135
91 | O=C(c1cccc(Cl)c1)c1ccccc1Nc1ncccc1[N+](=O)[O-] | 124 to 125
92 | Cc1nc2c(Br)cccc2c(=O)n1C1CCC(=O)NC1=O (stereo unspecified) | 307 to 309
93 | O=C1Nc2cc(Cl)ccc2C1c1ncnc2nn(C3CCCCC3)cc12 (stereo unspecified) | 299 to 303
94 | C#CCCCOc1ccc(C=O)cc1OC | 91 to 92
95 | OCCON=Cc1ccc(-c2ccccc2)nc1 | 100 to 101
96 | O=S(=O)(c1ccc(Cl)cc1)C(c1cc(F)ccc1F)C(O)CCCCO (stereo unspecified) | 105 to 107
97 | Cc1ccc(-n2c(-c3ccc(Br)cc3)c(Br)c(Br)c2-c2ccc(Br)cc2)cc1 | 240 to 242
98 | CCCCC1(CCCC)CS(=O)(=O)c2ccc(N(C)C)cc2[C@H](c2ccc(OCCOCCC(C(=O)O)C(=O)O)cc2)[C@@H]1O | 120
99 | CN1CCN(c2cccc3ccc(C(O)c4ccccc4)cc23)CC1 (stereo unspecified) | 162 to 163
100 | Cc1ccc(S(=O)(=O)NCC(CC(=O)Nc2ccccc2)c2ccc(Cl)cc2)cc1 (stereo unspecified) | 200 to 202
101 | CC(OC(=O)NC1(C(=O)O)CC1)OC(=O)C(C)C (stereo unspecified) | 127 to 130
